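Five concentrations, 48 hours, 96-well plates. The concentration for 50% growth inhibition is given as GI50.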 The source made the active and inactive calls. Cut-off read from the data, not from the text of the source: active = GI50 up to about 1.1 µM and inactive = higher.
Tests used:
Assay in all cases: inhibition of tumour cell growth, NCI panel, 48 h
786-0 = test system: 786-0
A549 = test system: A549
MDA-N = test system: MDA-N
Hs-578T = test system: Hs-578T
HL-60 = test system: HL-60
NCI/ADR-RES = test system: NCI/ADR-RES
SNB-19 = test system: SNB-19
NCI-H522 = test system: NCI-H522
NCI-H460 = test system: NCI-H460
SK-MEL-2 = test system: SK-MEL-2
RPMI-8226 = test system: RPMI-8226
MCF7 = test system: MCF7
M14 = test system: M14
CCRF-CEM = test system: CCRF-CEM
NCI-H23 = test system: NCI-H23
PC-3 = test system: PC-3
A498 = test system: A498
MDA-MB-231 = test system: MDA-MB-231
UACC-257 = test system: UACC-257
ACHN = test system: ACHN

Measured: GI50

O=C(O)CCO/N=C1/C(=C2/C(=O)Nc3ccccc32)Nc2ccccc21
inactive: 786-0 21.5 µM | A549 22.5 µM | MDA-N 28.8 µM | Hs-578T 21.1 µM | HL-60 23.7 µM | NCI/ADR-RES 42.2 µM | SNB-19 40.5 µM | NCI-H522 50.6 µM | NCI-H460 17.6 µM | SK-MEL-2 7.18 µM | RPMI-8226 42.2 µM | MCF7 23.3 µM | M14 19.6 µM | CCRF-CEM 13.8 µM | NCI-H23 17.7 µM | PC-3 25.4 µM | A498 5.6 µM | MDA-MB-231 37.4 µM | UACC-257 39.5 µM | ACHN 15.2 µM

CC(C)CNC(=O)c1c(NC(=O)c2ccccc2)sc2[nH]c(=O)n(-c3ccccc3)c(=O)c12
inactive: 786-0 16.8 µM | A549 > 100 µM | MDA-N > 100 µM | Hs-578T 14.3 µM | HL-60 68.9 µM | NCI/ADR-RES > 97.5 µM | SNB-19 24 µM | NCI-H522 43.7 µM | NCI-H460 > 100 µM | SK-MEL-2 27.5 µM | RPMI-8226 > 100 µM | MCF7 > 100 µM | M14 91.2 µM | CCRF-CEM 40.5 µM | NCI-H23 80.5 µM | PC-3 > 100 µM | A498 27.5 µM | MDA-MB-231 23.2 µM | UACC-257 > 100 µM | ACHN 13.8 µM

CN(/N=C/c1ccccc1O)c1ccc2ccccc2n1
inactive: 786-0 17.7 µM | A549 16.3 µM | MDA-N 52.2 µM | Hs-578T 26.7 µM | HL-60 81.7 µM | NCI/ADR-RES 22.4 µM | SNB-19 16.7 µM | NCI-H522 24.9 µM | NCI-H460 22.9 µM | SK-MEL-2 35.6 µM | RPMI-8226 35.6 µM | MCF7 2.61 µM | M14 27.1 µM | CCRF-CEM 12.9 µM | NCI-H23 17.1 µM | PC-3 17.5 µM | A498 20 µM | MDA-MB-231 29.8 µM | UACC-257 52.8 µM | ACHN 25.4 µM

O=C1Nc2cccc(Cl)c2/C1=C\c1c(-c2ccccc2)nc2n1CCS2
inactive: 786-0 18 µM | A549 18.6 µM | MDA-N 18.5 µM | Hs-578T 18.9 µM | HL-60 16.3 µM | NCI/ADR-RES 16.3 µM | SNB-19 26.6 µM | NCI-H522 30.2 µM | NCI-H460 17.8 µM | SK-MEL-2 20.3 µM | RPMI-8226 16.5 µM | MCF7 18.4 µM | M14 20.9 µM | CCRF-CEM 15 µM | NCI-H23 23.3 µM | PC-3 18.6 µM | A498 20.4 µM | MDA-MB-231 20.7 µM | UACC-257 21.4 µM | ACHN 16.4 µM

CC1CCC2(O)C3(C)CC4(O)OC2(C1O)C1(O)C3(O)C(OC(=O)c2ccc[nH]2)C(O)(C(C)C)C41C (stereo not given)
inactive: 786-0 > 100 µM | A549 > 100 µM | MDA-N > 100 µM | Hs-578T > 100 µM | HL-60 > 65.8 µM | NCI/ADR-RES > 100 µM | SNB-19 > 100 µM | NCI-H522 > 100 µM | NCI-H460 > 100 µM | SK-MEL-2 > 100 µM | RPMI-8226 > 100 µM | MCF7 > 100 µM | M14 > 100 µM | CCRF-CEM > 100 µM | NCI-H23 > 100 µM | PC-3 > 100 µM | A498 > 100 µM | MDA-MB-231 > 100 µM | UACC-257 > 100 µM | ACHN > 100 µM

From ChEMBL document CHEMBL1201862, “PubChem BioAssay data set” (2004)
